# From patent US7598079B2, “Assay for identifying compounds which affect stability of mRNA” (Novation Pharmaceuticals, Inc., priority 1998, dated 2009)
# Read-outs that look alike come from different tables or passages of the source. Numbered stars: 1 amine (or outer) side, 2 acyl side, 3 side chain; on linkers, the order of the positions; unused ones are H or OH. Bridge positions count the residues as written; N and C are the ends. Square brackets hold non-standard residues; d marks the D form. Peptide text beside a SMILES is read from it. I, II: the chains in the order shown. Actinocin(9to1) = Cc1c2oc3c(C)ccc(C(=O)[*:1])c3nc-2c(C(=O)[*:2])c(N)c1=O; NMeV = CN[C@H](C(=O)O)C(C)C; Sar = CNCC(=O)O
# How the values were obtained:
# Format in all cases: cell-based, human
# [1] = system: THP-1 clone No. 63 (luciferase mRNA with IL-1β 3′UTR instability sequence, three tandem AUUUA motifs); assay: Luciferase reporter gene assay, clone No. 63 (pGL2_Neo30 with 30 bp IL-1β 3′UTR mRNA instability sequence); settings: for Effect on mRNA stability in the assay (Table 3 summary) / Luciferase Activity (% of Control) Clone No. 63: differentiated cells; for Effect on mRNA stability in the assay (Table 3 summary): clone 63 versus clone 53; for Luciferase Activity Clone 63 γIFN/LPS stimulated: γIFN/LPS stimulated cells, mean of three experiments; for inhibition at 1 µM: Homo sapiens, THP-1; for Luciferase Activity (% of Control) Clone No. 63: compound 1 μM
# Excerpt: (§1) In order to obtain a vector for stable integration into THP-1 cells, a XhoI-SaII fragment of the neo resistant gene (expressing aminoglycoside 3′phosphotransferase) derived from pMC1neoPolyA (Stratagene) was subcloned into the SaII site of pGL2-Control (Promega). This resulting plasmid was called pGL2_Neo. A 30 bp fragment (containing three tandem AUUUA motifs and flanking IL-1β 3′UTR sequence) obtained by annealing two complementary synthetic oligonucleotides (see FIG. 2) was subcloned into pGL2_Neo using the PflMI restriction site. […] The lacZ gene was obtained from a HindIII/BamHI restriction digest of pSV-beta-Galactosidase (Promega) and subcloned into the HindIII/BamHI site of pGL2-Control (Promega).
# (§2) THP-1 cells were then cotransfected with either pGL2_Neo and pGL2-β-galactosidase vectors (to generate control cell lines) or with pGL2_Neo30 and pGL2-β-galactosidase vectors by electroporation. 10^7 cells/ml in 1.3 mM KH2PO4, 7.36 mM Na2HPO4, 2.44 mM KCl, 124 mM NaCl, 5 mM glucose, 9.64 μM MgCl2 and 16 μM CaCl2 pH 7.2 were transfected with 20 μg of DNA in a Bio-Rad Gene Pulser (250V, 690 μF and indefinite resistance) using a 0.4 cm cuvette. Cells were subsequently cultured in RPMI medium containing 10% FBS, 2 mM L-Gln (L-glutamine), 50 μM 2-mercaptoethanol and 600 μg/ml of G418 (geneticin). After transfection of pGL2_Neo30 and pGL2_Neo into THP-1 cells, G418 resistant stable cell lines were obtained by selection with G418 and assayed for luciferase activity. Cotransfected cell lines were also assayed for β-galactosidase activity which can serve as an internal control (see Example 5 below). One cell line of each transfection was chosen for further analysis; the pGL2_Neo30/pGL2-β-galactosidase cell line was referred to as clone No. 63 and the pGL2_Neo/pGL2-β-galactosidase cell line as clone No. 53. No endogenous luciferase activity could be detected in normal THP-1 cells.
# (§3) The transfected human monocytic leukaemia cell lines, clones No. 53 and 63 are grown in RPMI medium supplemented with 110 U/ml penicillin, 100 μg/ml streptomycin, 2 mM L-Gln and 2 g/l NaHCO3. Heat-treated FBS (5%) is added before use. The cells are grown to a density of 5×10^5/ml and induced to differentiate with 100 U/ml (final concentration) γIFN. Three hours later, 10 μl of LPS (5 μg/ml final concentration) is added. This time point is designated time 0. Compounds are added at various times after LPS addition as indicated.
# (§4) In order to adapt the system to the use of 96 well plates, cells were grown in Packard flat bottom white polystyrene microplates (Cat. No. 6005180) in RPMI medium lacking phenol red (AMIMED). Cells were plated at 5×10^4/well. After treatment of the cells, luciferase was measured using the Packard Luc Lite system (Cat. No. 601691 1) according to the manufacturer's instructions in a final volume of 205 μl. Briefly, to a cell suspension of 5×10^5 cells/ml, γIFN (1000 U/ml, Boehringer Mannheim, No. 1050494) to a final concentration of 100 U/ml and 0.25% (v/v) Luc Lite Enhancer was added. After a 3 hour incubation LPS (50 μg/ml Sigma, L-8274) was added to give 5 μg/ml final concentration. The cells were then plated at 5×10^4/100 μl/well into flat bottom white polystyrene microplates (Packard, Cat. No. 6005180) and incubated for 16 hours. 5 μl of compound solution or control vehicle was then added and the cells were further incubated as indicated. 100 μl of luciferase substrate solution was added and the plates were covered with TopSeal-A press-on adhesive sealing film (Packard Cat. No. 6005185) before measuring luminescence with a Packard Top Count Scintillation Counter at 22° C. The luciferase signal was stable for at least 90 min.
# (§5) The THP-1 cell lines, clone Nos. 63 and 53 are grown, differentiated with γIFN and stimulated with LPS identical to normal THP-1 cells. Radicicol analog A was added 16 hours after the addition of LPS and cell extracts were then taken 8 hours later or as indicated. […]
# [2] = system: THP-1 control clone No. 53 (luciferase mRNA without instability sequence); assay: Luciferase reporter gene assay, control clone No. 53 (pGL2_Neo, no instability sequence); settings: for Luciferase Activity Clone 53 γIFN/LPS stimulated: γIFN/LPS stimulated cells, mean of three experiments; for Luciferase Activity (% of Control) Clone No. 53: compound 1 μM, differentiated cells
# Excerpt: as §1, §2, §3, §4, §5
# [3] = system: THP-1 clone 63 (pGL2-β-galactosidase, lacZ without mRNA instability sequences); assay: β-galactosidase internal control activity, clone 63; settings: mean of three experiments; for β-galactosidase activity Clone 63 Unstimulated: unstimulated cells; for β-galactosidase activity Clone 63 γIFN/LPS stimulated: γIFN/LPS stimulated cells
# Excerpt: as §1, §2
# (§6) In the previous examples, test compounds were assayed by comparing their activity in two separate cell lines (clone Nos. 53 and 63). However, clone 63 was cotransfected with two separate plasmids: one plasmid (pGL2_Neo30) contained the luciferase gene with the 30 bp instability sequence driven by the SV40 promoter and the other plasmid (pGL2-β-galactosidase, FIG. 3B) contained the lacZ gene driven by the SV40 promoter but contained no mRNA instability sequences. The β-galactosidase activity of this cell line should not be affected by exposure of the cells to compounds which promote mRNA instability via mRNA instability sequences. As a result, one should be able to screen for compounds having mRNA instability activity by simply comparing luciferase activity in unstimulated cells versus stimulated cells and comparing the β-galactosidase activity in these same cells. […]
# [4] = system: THP-1 clone 53 (pGL2-β-galactosidase, lacZ without mRNA instability sequences); assay: β-galactosidase internal control activity, clone 53; settings: mean of three experiments; for β-galactosidase activity Clone 53 Unstimulated: unstimulated cells; for β-galactosidase activity Clone 53 γIFN/LPS stimulated: γIFN/LPS stimulated cells
# Excerpt: as §1, §2, §6
# [5] = system: IL-1β-AU cDNA derived RNA (3′ UTR AREs deleted) in THP-1 cells; assay: RNase protection analysis of IL-1β-AU (ARE-deleted) RNA in stably transfected THP-1 cells; settings: THP-1 cells stably transfected with IL-1β-AU construct
# Excerpt: For examples 1-5, the segment of 3′ UTR of IL-1β which contains all the AREs was deleted and the resulting IL-1β-AU cDNA was subcloned into an expression vector.
# [6] = system: THP-1 clone No. 63 (luciferase mRNA with IL-1β 3′UTR instability sequence, three tandem AUUUA motifs); assay: Luciferase reporter gene assay, clone No. 63 (pGL2_Neo30 with 30 bp IL-1β 3′UTR mRNA instability sequence); settings: for Luciferase Activity Clone 63 Unstimulated: unstimulated cells, mean of three experiments
# [7] = system: THP-1 control clone No. 53 (luciferase mRNA without instability sequence); assay: Luciferase reporter gene assay, control clone No. 53 (pGL2_Neo, no instability sequence); settings: 10 μM; unstimulated cells; mean of three experiments
# [8] = system: THP-1 clones No. 53 and 63 (luciferase); assay: Half life of luciferase mRNA and protein after addition of compounds, clones No. 53 and 63; settings: after 8 hours level comparable to radicicol analog A (1 μM)
# Excerpt: To measure mRNA degradation using luciferase protein activity it is important to know the half life of the luciferase enzyme in order to determine an optimal time for assaying for potential mRNA destabilizing agents by way of luciferase protein stability. The possibility exists that mRNA could be degraded but due to a long half life of the protein, high enzyme activities could persist. Therefore we analyzed luciferase activities after addition of the transcriptional inhibitor actinomycin D (act. D) or the translational inhibitor cycloheximide (CHX). […] In view of this relatively short half life of the luciferase enzyme, it is safe to assess substances for activity on mRNA degradation as early as 8 hours after compound addition.
molecule,measurement,setting,value
"COc1cc(O)c2c(c1OC)/C=C/C[C@H](O)[C@H](O)C(=O)/C=C\C[C@H](C)OC2=O [Radicicol analog A, radicicol analog A]",Effect on mRNA stability in the assay (Table 3 summary),[1]; 1 μM,clear effect on mRNA stability
same,Luciferase Activity Clone 63 γIFN/LPS stimulated,[1]; 1 μM,7 % control
same,Luciferase Activity Clone 63 γIFN/LPS stimulated,[1]; 10 μM,2 % control
same,inhibition at 1 µM,"[1]; 1 μM, differentiated clone No. 63, 8 hours, read-out: Inhibition of luciferase activity, greatest in some cases",93%
same,inhibition at 1 µM,"[1]; 1 μM, differentiated clone No. 63, added 16 h after LPS, extracts 8 hours later, read-out: Inhibition of luciferase activity, on average",50%
same,Luciferase Activity (% of Control) Clone No. 63,[1],49 % of Control
same,Concentration dependence of luciferase inhibition in differentiated clone No. 63,"[1]; differentiated clone No. 63, 8 hr. treatment (FIG. 8)",Concentration dependent inhibition of luciferase activity
same,Luciferase Activity Clone 53 γIFN/LPS stimulated,[2]; 1 μM,88 % control
same,Luciferase Activity Clone 53 γIFN/LPS stimulated,[2]; 10 μM,63 % control
same,Luciferase Activity (% of Control) Clone No. 53,[2],120 % of Control
same,Effect on control clone (No. 53) at high concentrations (cytotoxicity or inhibitory activity on transcription),[2]; concentrations higher than 5×10^−6 M,also inhibited the control clone
same,Effect on luciferase activity of control clone No. 53,[2]; up to 5×10^−6M,no effects
same,β-galactosidase activity Clone 63 Unstimulated,[3]; 1 μM,96 % control
same,β-galactosidase activity Clone 63 γIFN/LPS stimulated,[3]; 1 μM,97 % control
same,β-galactosidase activity Clone 63 Unstimulated,[3]; 10 μM,84 % control
same,β-galactosidase activity Clone 63 γIFN/LPS stimulated,[3]; 10 μM,70 % control
same,β-galactosidase activity Clone 53 Unstimulated,[4]; 1 μM,99 % control
same,β-galactosidase activity Clone 53 γIFN/LPS stimulated,[4]; 1 μM,98 % control
same,β-galactosidase activity Clone 53 Unstimulated,[4]; 10 μM,103 % control
same,β-galactosidase activity Clone 53 γIFN/LPS stimulated,[4]; 10 μM,62 % control
same,Response of AU-less derived RNA to compound (RNase protection),[5],showed resistance
same,Reduction of luciferase activity in undifferentiated clone No. 63,"[6]; 1 μM, undifferentiated cells, 8 hr. treatment",only a limited reduction of luciferase activity
same,Luciferase Activity Clone 63 Unstimulated,[6]; 1 μM,63 % control
same,Luciferase Activity Clone 63 Unstimulated,[6]; 10 μM,11 % control
same,Luciferase Activity Clone 53 Unstimulated,[7],87 % control
"Cc1c2oc3c(C)ccc(C(=O)N[C@@H]4C(=O)N[C@H](C(C)C)C(=O)N5CCC[C@H]5C(=O)N(C)CC(=O)N(C)[C@@H](C(C)C)C(=O)O[C@@H]4C)c3nc-2c(C(=O)N[C@@H]2C(=O)N[C@H](C(C)C)C(=O)N3CCC[C@H]3C(=O)N(C)CC(=O)N(C)[C@@H](C(C)C)C(=O)O[C@@H]2C)c(N)c1=O [actinomycin D] (I: T[dV]P[Sar][NMeV] / II: T[dV]P[Sar][NMeV]; ester I:1-I:C, II:1-II:C; linker I:N-II:N via Actinocin(9to1))",Luciferase activities after addition of transcriptional inhibitor,[8]; 20 μg/ml,rapidly declined
"C=C(C/C=C/C(C)(C)O)[C@@H]1CC[C@]2(C)[C@@H]1CC[C@@H]1[C@@]3(C)CC[C@H](O)C(C)(C)[C@@H]3CC[C@]12C [(17α)-23-(E)-dammara-20,23-dien-3β,25-diol]",Luciferase Activity (% of Control) Clone No. 63,[1],91 % of Control
same,Luciferase Activity (% of Control) Clone No. 53,[2],116 % of Control
Stemphon,Luciferase Activity (% of Control) Clone No. 63,[1],90 % of Control
same,Luciferase Activity (% of Control) Clone No. 53,[2],95 % of Control
O=C1CCC(N2C(=O)c3ccccc3C2=O)C(=O)N1 (centres unmarked) [Thalidomide],Luciferase Activity (% of Control) Clone No. 63,[1],112 % of Control
same,Luciferase Activity (% of Control) Clone No. 53,[2],98 % of Control
C[C@@H]1C[C@H]2[C@@H]3CCC4=CC(=O)C=C[C@]4(C)[C@@]3(F)[C@@H](O)C[C@]2(C)[C@@]1(O)C(=O)CO [Dexamethasone],Luciferase Activity (% of Control) Clone No. 63,[1],63 % of Control
same,Luciferase Activity (% of Control) Clone No. 53,[2],72 % of Control
Radicicol,Effect on mRNA stability in the assay (Table 3 summary),[1]; 1 μM,clear effect on mRNA stability
same,Luciferase Activity (% of Control) Clone No. 63,[1],47 % of Control
same,Luciferase Activity (% of Control) Clone No. 53,[2],98 % of Control
C[C@@H]1C[C@@H]([C@H](O)CC2CC(=O)NC(=O)C2)C(=O)[C@@H](C)C1 [cycloheximide],Luciferase activities after addition of translational inhibitor,[8]; 20 μM,rapidly declined
